# Assay results: patent US20160067277A1, “USE OF XENON FOR LIMITING TUMOR CELL MIGRATION” (L'Air Liquide, Societe Anonyme pour I'Etude et …, priority 2013, published 2016)
# Key:
# Assay type in all cases: cell-based, human
# MCF7 cells [1] = experiment: Oris cell migration test, fluorescence-labeled cells (RFU); settings: for % cell migration relative to the control: MCF7 (ER+) cells, migration at 24 h, control atmosphere = 100%
# Description: (§1) ER− and ER+ cancer cells (Estrogen Receptor) of a human adenocarcinoma (breast cancer), namely lines of MDA-MB-231 and MCF7 cells, were deposited on plates coated with collagen, where they adhered. These cell lines are available commercially.
# (§2) The plates with the adhering cells were then placed in a sealed chamber, saturated, for 1 h, 3 h and 5 h, with: • either a control atmosphere (control), namely a gas mixture formed from 25% O2, 5% CO2 and 70% N2 (vol %); • or a test atmosphere based on xenon according to the invention, namely a gas mixture formed from 25% O2, 5% CO2 and 70% xenon (vol %).
# (§3) For its part, cell migration at 24 h was determined after 24 hours, using fluorescence-labeled cells in the context of an Oris™ cell migration test. In this test, the labeled cells migrate into a target zone, where they are then quantified by a fluorescent plate reader for measuring the relative fluorescent units (RFU)).
# (§4) More precisely, as already noted, several tests (3 or 4 tests) were conducted with the different gas atmospheres for different exposure times, and the results were expressed in the form of relative fluorescent units (RFU).
# (§5) The migration of the cancer cells exposed to the atmosphere containing xenon was calculated as a percentage (%) relative to that of the cells exposed to the control atmosphere, i.e. exposed to an atmosphere without xenon (RFU fixed at 100%), and in the same conditions.
# (§6) A two-way t-test for statistical analysis of the difference between the cell lines and the probability values P below 0.05 were considered significant.
# MDA-MB-231 cells [2] = experiment: as above; settings: for % cell migration relative to the control: MDA-MB-231 (ER-) cells, migration at 24 h, control atmosphere = 100%
# Description: as §1, §2, §3, §4, §5, §6
# MCF7 cells [3] = experiment: MTT cell survival test; settings: 1 h, 3 h, 5 h exposure to 70% xenon, MTT after 24 hours
# Description: as §1, §2
# (§7) Cell survival was determined after 24 hours, using an MTT (for methylthaizolyldiphenyl-tetrazolium bromide) test. This test is a conventional test for determining cellular viability. It is based on detection of living cells only, via the activity of their mitochondrial dehydrogenases, which makes it possible to evaluate cytotoxicity, proliferation and/or cellular activation.
# MDA-MB-231 cells [4] = experiment: MTT cell survival test; settings: 1 h, 3 h, 5 h exposure to 70% xenon, MTT after 24 hours
# Description: as §1, §2, §7
# [5] = 1 h exposure to 25% O2, 5% CO2, 70% xenon
# [6] = 3 h exposure to 25% O2, 5% CO2, 70% xenon
# [7] = 5 h exposure to 25% O2, 5% CO2, 70% xenon
smiles,measurement,setting,value
[Xe] [xenon],effect on cell migration (in words),"MCF7 cells [1]; ER+ MCF7 cells, starting from 1 hour of exposure, FIG. 2",significantly reduces the migration
same,% cell migration relative to the control,MCF7 cells [1]; [5],58 ± 12%
same,% cell migration relative to the control,MCF7 cells [1]; [6],65 ± 12%
same,% cell migration relative to the control,MCF7 cells [1]; [7],65 ± 12%
same,effect on cell migration (in words),"MDA-MB-231 cells [2]; ER- MDA-MB-231 cells, starting from 1 hour of exposure, FIG. 1",significantly reduces the migration
same,% cell migration relative to the control,MDA-MB-231 cells [2]; [5],59 ± 13%
same,% cell migration relative to the control,MDA-MB-231 cells [2]; [6],64 ± 10%
same,% cell migration relative to the control,MDA-MB-231 cells [2]; [7],71 ± 9%
same,effect on cell survival,MCF7 cells [3],does not have a significant effect on cell survival
same,effect on cell survival,MDA-MB-231 cells [4],does not have a significant effect on cell survival
